According to article PMC5749684, “Tetrahydrocarbazoles are a novel class of potent P-type ATPase inhibitors with antifungal activity” (PLoS ONE, 2018):
In brackets after ≈: the same amount, converted by molar mass. Several values for one entry are separate records, joined by “and”; a condition that tells them apart may be missing. Equal values may be shown once. Entries after “also recorded” stand apart in the source; their conditions may differ.

Legend:
Candida glabrata Cg003 = assay: microbe, parasite or virus in culture; format: cell-based; details: for MIC: Nakaseomyces glabratus, CG003, 24 h, read-out: Growth inhibition MIC Candida glabrata Cg003
Procedure: Fungal isolates were purchased from American Type Culture Collection, except for C. glabrata strain Cg003, which was kindly provided by Julius Subik, Comenius University in Bratislava, Slovak Republic. […] Saccharomyces cerevisiae (ATCC 9763), Candida albicans (ATCC 90028), Candida albicans (SC5314), Candida glabrata (ATCC 90030), Candida glabrata (Cg003) and Candida krusei (ATCC 6258) were grown in Sabouraud broth (40 g/L D-glucose, 10 g/L peptone, pH 5.6) or YPD (10 g/L yeast extract, 20 g/L Bacto-peptone, 20 g/L glucose) medium to mid log phase, aliquoted into 20% (v/v) glycerol and cryopreserved as stocks at -80°C. For each growth assay, cells from these stocks were diluted in sterile water to OD600 = 0.025, which corresponds to a final starting inoculum of 0.5–2.5 x 10^5 CFU/mL. Growth assays were carried out by pipetting 3 μL compound dissolved in DMSO, 100 μL cell suspension and 97 μL 2 x RPMI media (20.8 g/L RPMI-1640 (Sigma-Aldrich catalog number R6504) 330 mM MOPS, 36 g/L glucose) into a microtiter plate and incubating for 24 h at 34°C, followed by OD measurement at 490 nm.

[1] = target: T1, Saccharomyces cerevisiae Pma1 (Saccharomyces cerevisiae, UniProt P05030); assay: ATP hydrolysis inhibition, S. cerevisiae Pma1; format: biochemical; details: for Pma1 inhibition (in words): Pma1 species not specified; for Selectivity among P-type ATPases (in words): Pma1 versus SERCA and Na+,K+-ATPase
T1 construct: containing the full-length cDNA of the S. cerevisiae plasma membrane H^+-ATPase isoform PMA1; made in house; host or cells: Saccharomyces cerevisiae RS72
T1 sequence (P05030 whole entry, canonical isoform): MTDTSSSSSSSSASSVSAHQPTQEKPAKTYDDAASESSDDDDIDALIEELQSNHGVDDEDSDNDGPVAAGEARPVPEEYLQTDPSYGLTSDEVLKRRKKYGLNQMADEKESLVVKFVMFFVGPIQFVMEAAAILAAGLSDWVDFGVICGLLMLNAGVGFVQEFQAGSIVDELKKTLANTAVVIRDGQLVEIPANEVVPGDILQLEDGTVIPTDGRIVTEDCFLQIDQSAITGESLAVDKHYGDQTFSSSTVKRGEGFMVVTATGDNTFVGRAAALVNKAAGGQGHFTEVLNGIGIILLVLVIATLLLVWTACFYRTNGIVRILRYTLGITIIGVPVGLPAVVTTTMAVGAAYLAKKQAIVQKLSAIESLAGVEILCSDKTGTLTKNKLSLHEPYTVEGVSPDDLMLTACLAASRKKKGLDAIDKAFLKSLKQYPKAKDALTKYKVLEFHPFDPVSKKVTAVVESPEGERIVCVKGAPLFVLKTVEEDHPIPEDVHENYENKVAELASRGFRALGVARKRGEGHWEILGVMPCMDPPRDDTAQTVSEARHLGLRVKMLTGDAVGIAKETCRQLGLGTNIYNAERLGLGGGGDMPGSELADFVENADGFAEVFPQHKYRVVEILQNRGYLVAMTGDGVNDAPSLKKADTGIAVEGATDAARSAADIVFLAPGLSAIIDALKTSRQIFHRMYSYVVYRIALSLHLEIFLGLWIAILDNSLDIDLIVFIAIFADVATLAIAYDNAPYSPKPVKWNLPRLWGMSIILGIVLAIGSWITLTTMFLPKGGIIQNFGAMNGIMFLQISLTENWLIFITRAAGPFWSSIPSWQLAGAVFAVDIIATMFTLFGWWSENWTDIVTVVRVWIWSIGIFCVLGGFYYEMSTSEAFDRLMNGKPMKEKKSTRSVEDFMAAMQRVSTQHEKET
Procedure: The compound libraries were purchased from Enamine Ltd, Ukraine and Chembridge Corp, USA. Library screening was performed in 96 well plates format and each compound was screened in the ATP hydrolysis assay at a final concentration of 20 μM. DMSO was used to determine the maximal ATPase activity and a blank with ATP in absence of Pma1 protein was used to determine the level of spontaneous ATP hydrolysis and used to determine background level. The percentage of compound inhibition was evaluated by subtracting the blank from each data point and normalizing to maximal ATP hydrolysis activity. […] Pma1 inhibitory hit compounds (IC50 <20 μM) with antifungal activity on both S. cerevisiae and C. albicans (MIC <100 μM) were re-purchased and re-evaluated to confirm the potency and identity of the compound.
Plasma membranes containing Pma1 were isolated from Saccharomyces cerevisiae RS72 cells containing the full-length cDNA of the S. cerevisiae plasma membrane H^+-ATPase isoform PMA1 under control of the PMA1 promoter as described.
(§1) ATPase activity was determined by measuring the amount of liberated phosphate from ATP hydrolysis. The ATPase assay was performed in 96 well plates in a final reaction volume of 60 μL. 0.1–0.2 μg/well of DOC extracted SERCA membrane or the Na^+,K^+-ATPase was used, while 1–2.5 μg/well was used of the Pma1 membrane preparation. Reactions, including protein membrane preparation and various concentrations of exogenously added compounds, were conducted in the following buffers; Pma1 buffer: 17.5 mM MOPS-NaOH pH 7, 7 mM MgSO4, 44 mM KNO3 (vacuolar ATPase inhibitor), 22 mM NaN3 (mitochondrial ATPase inhibitor), 0.22 mM Na2MoO4 (acid phosphatase inhibitor); SERCA buffer: 9 mM MOPS-NaOH pH 7, 2.7 mM MgCl2, 0.1 mM CaCl2 and 72 mM KCl. Na^+,K^+-ATPase buffer: 30 mM MOPS-NaOH pH 7, 40 mM NaCl, 4 mM MgCl2 and 20 mM KCl. Reactions were initiated by the addition of Na-ATP to a final concentration of 2.5 mM (Pma1 and Na^+,K^+-ATPase) or 5 mM (SERCA), followed by 30 minutes incubation at 30°C. […] Absorption was measured at 860 nm after additional 30 minutes incubation at RT.

Candida albicans Pma1 = target: T2, Candida albicans Pma1 (Candida albicans, UniProt P28877); assay: ATP hydrolysis inhibition, C. albicans Pma1; format: biochemical; details: racemic compounds, n = 3
T2 construct: endogenous in cells
T2 sequence (P28877 whole entry): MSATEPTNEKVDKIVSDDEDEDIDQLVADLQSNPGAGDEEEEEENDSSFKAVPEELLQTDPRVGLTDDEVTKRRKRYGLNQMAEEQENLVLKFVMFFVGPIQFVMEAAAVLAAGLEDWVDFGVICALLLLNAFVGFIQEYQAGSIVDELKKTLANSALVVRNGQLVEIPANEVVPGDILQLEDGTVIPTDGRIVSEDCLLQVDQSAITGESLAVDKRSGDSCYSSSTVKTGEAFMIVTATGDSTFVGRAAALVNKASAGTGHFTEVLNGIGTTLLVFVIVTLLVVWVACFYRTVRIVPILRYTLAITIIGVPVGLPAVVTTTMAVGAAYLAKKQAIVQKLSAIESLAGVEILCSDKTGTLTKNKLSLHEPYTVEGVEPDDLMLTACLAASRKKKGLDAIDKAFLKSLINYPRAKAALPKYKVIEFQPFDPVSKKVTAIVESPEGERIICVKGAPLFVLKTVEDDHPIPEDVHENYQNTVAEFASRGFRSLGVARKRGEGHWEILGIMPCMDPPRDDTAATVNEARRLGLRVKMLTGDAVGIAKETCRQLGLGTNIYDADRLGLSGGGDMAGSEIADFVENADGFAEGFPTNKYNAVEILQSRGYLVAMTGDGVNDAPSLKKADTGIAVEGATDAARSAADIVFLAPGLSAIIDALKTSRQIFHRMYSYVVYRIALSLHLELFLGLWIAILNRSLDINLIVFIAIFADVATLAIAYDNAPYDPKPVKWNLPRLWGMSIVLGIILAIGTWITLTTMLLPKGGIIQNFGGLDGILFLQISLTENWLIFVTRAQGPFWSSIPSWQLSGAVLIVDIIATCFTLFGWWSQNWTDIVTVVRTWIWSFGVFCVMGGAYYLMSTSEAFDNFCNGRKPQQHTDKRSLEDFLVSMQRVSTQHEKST
Procedure: Candida albicans microsomes were prepared from 100 mL overnight culture in YPD (10 g/L yeast extract (BD, Sparks, MD), 20 g/L Bacto peptone (BD, Sparks, MD), 20 g/L D-(+)-glucose), transferred to 1 L YPD and grown at RT, 150 rpm, for 7 h. Cells were harvested and washed in deionized water followed by centrifugation at 3360 x g. The cells were glucose-activated by the addition of 10% (w/v) D-(+)-glucose for 10 minutes while shaking. This suspension was then centrifuged at 3,360 x g for 3 minutes and 60–80 g of cells (wet weight) were resuspended in homogenization buffer (50 g/L glucose, 28.3% (v/v) glycerol, 100 mM Tris-HCl pH 7.25, 10 mM EDTA pH 8.0, 50 mM KCl, 1 mM DTT, 200 μM PMSF, 2 μg/ml Pepstatin A), and disrupted with 165 g glassbeads (500 μm diameter) in a BeadBeater (Biospec Product, Bartlesville, OK). The disrupted cells were centrifuged at 4°C for 5 and 15 minutes at 1,400 x g and 12,000 x g, respectively. The supernatant was collected and centrifuged at 251,000 x g for 1 h, and the membrane fraction was collected and homogenized in GTEK20 buffer (20% (v/v) glycerol, 10 mM Tris-HCl pH 7.25, 25 mM KCl, 0.5 mM EDTA pH 8.0, 1 mM DTT, 0.2 mM PMSF, 2 μg/mL Pepstatin A).
as §1

[2] = ATP hydrolysis IC50 Saccharomyces cerevisiae Pma1, racemic compounds, n = 3
[3] = Pma1 IC50, Pma1 species not specified

SMILES	MIC (Candida glabrata Cg003)	IC50 [1, 2]	Pma1 inhibition (in words) [1]	IC50 (Candida albicans Pma1)	Selectivity among P-type ATPases (in words) [1]	Antifungal activity against C. glabrata strain Cg003 (in words) (Candida glabrata Cg003; strain overexpresses efflux pumps Cdr1p and Cdr2p)	IC50 [1, 3]
NC1CCCc2c1[nH]c1cc(OC(F)(F)F)ccc21 (centres unmarked) [Compound 4]	75 µM (≈ 20.3 µg/mL)	75 ± 3.2 µM	weak inhibitors of Pma1	46 ± 14.5 µM	–	–	–
CN1CCC(NC2CCCc3c2[nH]c2cc(OC(F)(F)F)ccc32)CC1 (centres unmarked) [Compound 5]	> 75 µM	85.9 ± 10.3 µM	weak inhibitors of Pma1	130 ± 32.2 µM	–	–	–
FC(F)(F)Oc1ccc2c3c([nH]c2c1)C(NCc1ccc(Cl)cc1)CCC3 (centres unmarked) [Compound 6]	> 75 µM	2.79 ± 0.36 µM	–	3.89 ± 1.71 µM	more potent in inhibiting SERCA and the Na^+,K^+-ATPase than Pma1	–	–
FC(F)(F)Oc1ccc2c3c([nH]c2c1)C(NCc1ccc(Br)cc1)CCC3 (centres unmarked) [Compound 7]	> 75 µM	2.43 ± 0.39 µM	–	2.47 ± 0.26 µM	more potent in inhibiting SERCA and the Na^+,K^+-ATPase than Pma1	–	–
FC(F)(F)Oc1ccc2c3c([nH]c2c1)C(NCCOc1ccc(Cl)cc1)CCC3 (centres unmarked) [Compound 8]	> 75 µM	3.57 ± 1.81 µM	–	3.77 ± 1.04 µM	more potent in inhibiting SERCA and the Na^+,K^+-ATPase than Pma1	–	–
FC(F)(F)Oc1ccc2[nH]c3c(c2c1)CCCC3NCc1ccc(-c2ccccn2)cc1 (centres unmarked) [Compound 9]	23.7 µM (≈ 10.4 µg/mL)	4.73 ± 2.23 µM	–	5.56 ± 1.55 µM	–	exhibited antifungal activity	5 to 7 µM
Clc1ccc2[nH]c3c(c2c1)CCCC3NCc1ccc(-c2ccccc2)cc1 (centres unmarked) [Compound 10]	> 75 µM	7 µM and 6.69 µM	–	9.7 ± 2.15 µM	–	–	5 to 7 µM
Cn1c2c(c3cc(Cl)ccc31)CCCC2NCc1ccc(-c2ccccc2)cc1 (centres unmarked) [Compound 11]	> 20 µM	> 20 µM	no activity against Pma1; also recorded: no inhibitory effect on Pma1	> 20 µM	–	–	–
CN(Cc1ccc(-c2ccccc2)cc1)C1CCCc2c1[nH]c1ccc(Cl)cc21 (centres unmarked) [Compound 12]	> 20 µM	> 20 µM	no activity against Pma1; also recorded: no inhibitory effect on Pma1	> 20 µM	weakly selective for Na^+,K^+-ATPase only	–	–
